Measured values: patent publication US20240368150A1 (Hoffmann-La Roche Inc., priority 2021, published 2024)
Like-named read-outs stand apart in the source and are kept apart here.

What was measured:
primary human T-cells [1] = assay: Proliferation assay after 5 days (CellTiter-Glo, CD3 stimulation; PBS counter screen); type: cell-based; settings: Homo sapiens, T-cell, 120 h, CD3 stimulation; for Emax: 5 days, normalized to reference compound A1 as stimulator control = 100%, DMSO neutral control, read-out: Emax proliferation (% activation); for EC50: primary human T-cells, CellTiter-Glo after 5 days, EC50 of fitted sigmoidal curve, read-out: Tcell Proliferation CD3 EC50
Summary of the method: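 Read-out: CellTiter-Glo 2.0 luminescence (ATP ∝ cell number) at day 5 after compound addition. Compounds activating unstimulated cells or reducing viability flagged.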

primary human T-cells [2] = tested on: primary human T-cells

Compound | Emax (primary human T-cells [1]) | EC50 (primary human T-cells [1]) | EC50 (primary human T-cells [2])
CC(C)(C)c1ccn(-c2cc3c(cc2F)S(=O)(=O)C[C@H](N)C(=O)N3Cc2ccc(Cl)cc2)n1 [Example 283, (3R)-3-amino-7-(3-tert-butylpyrazol-1-yl)-5-[(4-chlorophenyl)methyl]-8-fluoro-1,1-dioxo-2,3-dihydro-1λ^6,5-benzothiazepin-4-one] | 67% | 5490 nM | 1010 nM
CC(C)(C)c1nnc(-c2cc3c(cc2F)S(=O)(=O)C[C@H](N)C(=O)N3Cc2ccc(F)c(F)c2)o1 [Example 246, (3R)-3-amino-7-(5-tert-butyl-1,3,4-oxadiazol-2-yl)-5-[(3,4-difluorophenyl)methyl]-8-fluoro-1,1-dioxo-2,3-dihydro-1λ^6,5-benzothiazepin-4-one] | 110% | 442 nM | 342 nM
Cc1cccc(F)c1-c1nnc(-c2cc3c(cc2F)S(=O)(=O)C[C@H](N)C(=O)N3Cc2ccc(Cl)cc2)o1 [Example 100, (3R)-3-amino-5-[(4-chlorophenyl)methyl]-8-fluoro-7-[5-(2-fluoro-6-methyl-phenyl)-1,3,4-oxadiazol-2-yl]-1,1-dioxo-2,3-dihydro-1λ^6,5-benzothiazepin-4-one] | 89% | 49.6 nM | 484 nM
CC[C@H](O)C(=O)N[C@H]1CS(=O)(=O)c2cc(F)c(-c3nnc(C(C)(C)C)o3)cc2N(Cc2ccc(Cl)cc2)C1=O [Example 260, (2S)-N-[(3R)-7-(5-tert-butyl-1,3,4-oxadiazol-2-yl)-5-[(4-chlorophenyl)methyl]-8-fluoro-1,1,4-trioxo-2,3-dihydro-1λ^6,5-benzothiazepin-3-yl]-2-hydroxy-butanamide] | 82% | 1820 nM | > 20000 nM
CC1(c2nnc(-c3cc4c(cc3F)S(=O)(=O)C[C@H](N)C(=O)N4Cc3ccc(Cl)cc3)o2)CCN(S(C)(=O)=O)CC1 [Example 170, (3R)-3-amino-5-[(4-chlorophenyl)methyl]-8-fluoro-7-[5-(4-methyl-1-methylsulfonyl-4-piperidyl)-1,3,4-oxadiazol-2-yl]-1,1-dioxo-2,3-dihydro-1λ^6,5-benzothiazepin-4-one] | 97% | 1500 nM | 405 nM
N[C@H]1CS(=O)(=O)c2ccc(-c3nnc(C4(C(F)(F)F)CC4)o3)cc2N(Cc2ccc(Cl)cc2)C1=O [Example 366, (3R)-3-amino-5-[(4-chlorophenyl)methyl]-1,1-dioxo-7-[5-[1-(trifluoromethyl)cyclopropyl]-1,3,4-oxadiazol-2-yl]-2,3-dihydro-1λ^6,5-benzothiazepin-4-one] | 106% | 677 nM | 584 nM
N[C@H]1CS(=O)(=O)c2ccc(-c3nnc(N4CCOC5CC54)o3)cc2N(Cc2ccc(Cl)cc2)C1=O (stereo partly drawn) [Example 408, (3R)-3-amino-5-[(4-chlorophenyl)methyl]-7-[5-(2-oxa-5-azabicyclo[4.1.0]heptan-5-yl)-1,3,4-oxadiazol-2-yl]-1,1-dioxo-2,3-dihydro-1λ^6,5-benzothiazepin-4-one] | 88% | 4890 nM | > 10000 nM
C#CCOCCOCCOCCCC(C)(C)c1nc(-c2cc3c(cc2F)S(=O)(=O)C[C@H](N)C(=O)N3Cc2ccc(Cl)cc2)no1 [Example 327, (3R)-3-amino-5-[(4-chlorophenyl)methyl]-7-[5-[1,1-dimethyl-4-[2-(2-prop-2-ynoxyethoxy)ethoxy]butyl]-1,2,4-oxadiazol-3-yl]-8-fluoro-1,1-dioxo-2,3-dihydro-1λ^6,5-benzothiazepin-4-one] | 104% | 722 nM | 2330 nM
N[C@H]1CS(=O)(=O)c2cc(F)c(-c3nnc(C4CNCC(F)(F)C4)o3)cc2N(Cc2ccc(Cl)cc2)C1=O (stereo partly drawn) [Example 160, (3R)-3-amino-5-[(4-chlorophenyl)methyl]-7-[5-(5,5-difluoro-3-piperidyl)-1,3,4-oxadiazol-2-yl]-8-fluoro-1,1-dioxo-2,3-dihydro-1λ^6,5-benzothiazepin-4-one] | 96% | 382 nM | 500 nM
CC(C)(CN)c1nnc(-c2cc3c(cc2F)S(=O)(=O)C[C@H](N)C(=O)N3Cc2ccc(Cl)cc2)o1 [Example 111, (3R)-3-amino-7-[5-(2-amino-1,1-dimethyl-ethyl)-1,3,4-oxadiazol-2-yl]-5-[(4-chlorophenyl)methyl]-8-fluoro-1,1-dioxo-2,3-dihydro-1λ^6,5-benzothiazepin-4-one] | 97% | 556 nM | 3130 nM
N[C@H]1CS(=O)(=O)c2cc(F)c(-c3nnc(C4CCC(F)(F)C4)o3)cc2N(Cc2ccc(Cl)cc2)C1=O (stereo partly drawn) [Example 75, (3R)-3-Amino-5-[(4-chlorophenyl)methyl]-7-[5-(3,3-difluorocyclopentyl)-1,3,4-oxadiazol-2-yl]-8-fluoro-1,1-dioxo-2,3-dihydro-1λ^6,5-benzothiazepin-4-one] | 161% | 35.1 nM | 114 nM
COC(=O)N1CCC(c2nnc(-c3cc4c(cc3F)S(=O)(=O)C[C@H](N)C(=O)N4Cc3ccc(Cl)cc3)o2)CC1 [Example 167, methyl 4-[5-[(3R)-3-amino-5-[(4-chlorophenyl)methyl]-8-fluoro-1,1,4-trioxo-2,3-dihydro-1λ^6,5-benzothiazepin-7-yl]-1,3,4-oxadiazol-2-yl]piperidine-1-carboxylate] | 100% | 208 nM | 122 nM
CC(C)(C)c1cn(-c2cc3c(cc2F)S(=O)(=O)C[C@H](N)C(=O)N3Cc2ccc(Cl)cc2)nn1 [Example 5, (3R)-3-amino-7-(4-tert-butyltriazol-1-yl)-5-[(4-chlorophenyl)methyl]-8-fluoro-1,1-dioxo-2,3-dihydro-1λ^6,5-benzothiazepin-4-one] | 154% | 2140 nM | 991 nM
CC(C)(C)n1nnc(-c2cc3c(cc2F)S(=O)(=O)C[C@H](N)C(=O)N3Cc2ccc(OC(F)(F)F)cc2)n1 [Example 30, (3R)-3-amino-7-(2-tert-butyltetrazol-5-yl)-8-fluoro-1,1-dioxo-5-[[4-(trifluoromethoxy)phenyl]methyl]-2,3-dihydro-1λ^6,5-benzothiazepin-4-one] | 117% | 43.5 nM | 39.8 nM
COc1ccc(CN2C(=O)[C@@H](N)CS(=O)(=O)c3cc(F)c(-c4nnc(C(C)(C)C)o4)cc32)cc1 [Example 230] | 119% | 89.3 nM | 105 nM
COC(F)(c1nc(-c2cc3c(cc2F)[S+]([O-])C[C@H](N)C(=O)N3Cc2ccc(Cl)cc2)no1)C(F)(F)F (stereo partly drawn) [Example 338, (3R)-3-amino-5-[(4-chlorophenyl)methyl]-8-fluoro-1-oxo-7-[5-(1,2,2,2-tetrafluoro-1-methoxy-ethyl)-1,2,4-oxadiazol-3-yl]-2,3-dihydro-1λ^4,5-benzothiazepin-4-one] | 137% | 282 nM | 1580 nM
N[C@H]1CS(=O)(=O)c2cc(F)c(-c3nnc(C4CCCC(F)(F)C4)o3)cc2N(Cc2ccc(OC(F)(F)F)cc2)C1=O (stereo partly drawn) [Example 55, (3R)-3-Amino-7-[5-(3,3-difluorocyclohexyl)-1,3,4-oxadiazol-2-yl]-8-fluoro-1,1-dioxo-5-[[4-(trifluoromethoxy)phenyl]methyl]-2,3-dihydro-1λ^6,5-benzothiazepin-4-one] | 282% | 50.7 nM | 53.2 nM
